pIC50: −log10 of the molar value.
System: S. typhi GFP reporter counter-screen, fluorescence, 4 h
Experiment: S. typhi counter-screen signal inhibition – fluorescence, 4 h, counter-screen for PhoP regulon inhibitor project, dose response (AID 2384)

Compound | pIC50
OCCNc1nc(Nc2ccc(Br)cc2)nc2ccccc12 | 4.80
Oc1ccc(C2NCc3ccccc3-n3cccc32)cc1Cl (stereo not given) | 4.05
Cc1ccc(Nc2nc(N)c3ccccc3n2)cc1Cl | 4.44
Nc1cccc2nc3ccccc3cc12 | 4.16
Clc1ccc(C(c2ccc(Cl)cc2)n2cc[n+](CC(OCc3ccc(Cl)cc3Cl)c3ccc(Cl)cc3Cl)c2)cc1 (stereo not given) | 5.01
NC1=NC2(CCCCC2)N=C(Nc2ccc(Br)cc2)N1 | 4.45
O=C(CN1CCCC1)Nc1ccc(-c2nc3cc(NC(=O)CN4CCCC4)ccc3o2)cc1 | 4.24
CCCCCOc1ccc(C)cc1CN(CCCl)CCCl | 4.15
Cc1cccc(Nc2nc(NCc3ccco3)c3ccccc3n2)c1 | 4.85
O=C(N/N=C/c1ccc([N+](=O)[O-])o1)c1ccc(O)cc1 | 4.42
COc1ccccc1CNCCc1ccc(F)cc1 | 4.48
N=C(N)c1ccc(/C=C/c2ccc(C(=N)N)cc2O)cc1 | 4.98
COCCCNC(=S)NNC(=O)c1ccccn1 | 4.63
O=C(N/N=C/c1ccc(N2CCCC2)c([N+](=O)[O-])c1)c1cccnc1 | 3.98
CNCCCC1c2ccccc2C=Cc2ccccc21 | 4.17
Cc1ccccc1C(=O)NNC(=S)NC(=O)COc1ccccc1 | 3.90
CN(C)CCCNc1cc(C(C)(C)C)nc2c(-c3ccccc3)cnn12 | 4.50
Cc1ccc(OCC(=O)N/N=C\c2c(C)[nH]n(-c3ccccc3)c2=O)c([N+](=O)[O-])c1 | 4.37
O=C(CN1C2=NCCCN2c2ccccc21)c1ccc2c(c1)OCO2 | 3.90
Cc1ccc(OCC(O)Cn2c(=N)n(CCN3CCCCC3)c3ccccc32)cc1 (stereo not given) | 4.87
NC(N)=N/N=C/c1ccc(OCc2ccc(Cl)cc2)cc1 | 4.57
O=C(NC(CO)C(O)c1ccc([N+](=O)[O-])cc1)C(Cl)Cl (stereo not given) | 5.52

Compound | pIC50
CN(C)CCCNC(=S)NCC(c1ccc(Cl)cc1Cl)c1c[nH]c2ccccc12 (stereo not given) | 4.58
O=C(/C=C/c1ccccc1Cl)c1ccccc(=O)c1O | 4.55
COc1ccc(C(=O)N/N=C/c2sc3ccccc3c2O)cc1 | 4.20
O=C(NC(=S)NNC(=O)c1ccco1)c1ccc(Br)cc1 | 4.12
C#CCOCCOCCOCCNc1nc(N2CCN(C(=O)CCCCCCCCCCNC(=O)[C@H](CCCCN)n3cc(CCO)nn3)CC2)nc(N2CCN(C(=O)CCCCCCCCCCNC(=O)[C@H](CCCCN)n3cc(C[C@@H](C)CC)nn3)CC2)n1 | 4.70
COc1cc(CNCCc2ccccc2)cc(Cl)c1OCc1ccccc1 | 4.42
COc1cccc(F)c1C(C[N+](=O)[O-])c1c(N)n(C)c(=O)n(C)c1=O (stereo not given) | 4.05
Cc1cc(O)c2c(c1)C(=O)C13C(=C2O)C(=O)[C@H]2[C@@H](O)[C@@H]1[C@H]1[C@H](O)[C@@H]3C(=O)C3=C(O)c4c(O)cc(C)cc4C(=O)C312 (stereo not given in full) | 5.13
Cc1ccc(C)c(NC(=O)CCC(=O)N/N=C/c2cc([N+](=O)[O-])ccc2O)c1 | 4.33
CCCCOc1ccc(Br)cc1CSC(=N)N | 4.85
CN1CCN(c2ccc(NC(=O)CSc3ccccc3)cc2F)CC1 | 3.98
CCn1cc(C(=O)O)c(=O)c2cc(F)c(N3CCN(C(=O)Nc4ccccc4)CC3)cc21 | 4.29
C[C@H]1c2cccc(O)c2C(O)=C2C(=O)[C@]3(O)C(O)=C(C(N)=O)C(=O)[C@@H](N(C)C)C3[C@@H](O)C21 (stereo not given in full) | 6.17
NC(=O)c1ccc(N=C2C(=O)Nc3ccc([N+](=O)[O-])cc32)cc1 | 4.14
CCOC(=O)N1CCN(Cc2cc(Cl)c3cccnc3c2O)CC1 | 4.32
C#CCOCCOCCOCCNc1nc(N2CCN(C(=O)CCCCCCCCCCNC(=O)[C@H](CCCCN)n3cc(CCO)nn3)CC2)nc(N2CCN(C(=O)CCCCCCCCCCNC(=O)[C@H](CCCCN)n3cc(CCO)nn3)CC2)n1 | 4.44
COC(=O)N/N=C/c1c[n+]([O-])c2ccccc2[n+]1[O-] | 4.04
Oc1ccc(/C=N/N=C(c2ccccc2)c2ccccc2)c(O)c1O | 4.47
CC[N+](C)(CC)CCC[n+]1c(-c2ccccc2)c2cc(N)ccc2c2ccc(N)cc21 | 3.89
Clc1ccc(C(c2ccccc2)N2CCNCC2)cc1 (stereo not given) | 4.01
COc1ccc(Cc2nnc(N/N=C/c3ccc(O)cc3)[nH]c2=O)cc1OC | 4.08
CCOC(=O)Cn1c(=N)n(CCOc2ccc3ccccc3c2)c2ccccc21 | 4.43

Compound | pIC50
C#CCOCCOCCOCCNc1nc(N2CCN(C(=O)[C@H](Cc3ccc(O)cc3)n3cc([C@@H](N)C(C)CC)nn3)CC2)nc(N2CCN(C(=O)[C@H](Cc3cc4ccccc4[nH]3)n3cc([C@@H](N)Cc4ccc(O)cc4)nn3)CC2)n1 (stereo not given in full) | 4.49
CN(C)CC/C=C1\c2ccc(F)cc2Sc2cc(F)c(Cl)cc21 | 4.71
O=C(Cn1nc(CNc2ccc(Cl)cc2)[n+]2c1CCCCC2)c1ccc(Br)cc1 | 4.24
O=C(Cn1cncn1)N/N=C/c1ccccc1O | 3.83
CCCCCc1ccc(OCCCC[n+]2cccc(C)c2)c(CCCCC)c1 | 4.19
CN1CCN(c2cc3c(cc2F)c(=O)c(C(=O)O)cn3CCF)CC1 | 5.97
CCOc1ccc(Nc2c3ccccc3nc3ccccc23)cc1 | 4.71
Fc1ccc(NC(=S)Nc2cc(-c3ccccc3)[nH]n2)cc1Cl | 4.14
CCCCCCCCNc1ncnc2ccccc12 | 4.48
CS(=O)(=O)c1ccc2nc(NC(=O)c3ccc(Cl)nc3)sc2c1 | 4.56
CCCCCCCNC(=O)C1(CC2CC(c3ccc(Cl)cc3)=NO2)CCNCC1 (stereo not given) | 4.62
Cc1nonc1C(=O)N/N=C/c1ccc(O)cc1O | 4.69
CCOC(=O)c1ccc(CNCc2ccc(Br)cc2)cc1 | 4.34
O=C(N[C@H](CO)[C@H](O)c1ccc([N+](=O)[O-])cc1)C(Cl)Cl | 5.80
Oc1c(Br)cc(Br)cc1C=Nc1ccc2[nH]ncc2c1 | 4.66
O=C(CCC(=O)Nc1ccc(Cl)cc1Cl)N/N=C/c1ccc([N+](=O)[O-])o1 | 4.54
C#CCOCCOCCOCCNc1nc(N2CCN(C(=O)CCCCCCCCCCNC(=O)[C@H](CCCCN)n3cc(C[C@@H](C)CC)nn3)CC2)nc(N2CCN(C(=O)CCCCCCCCCCNC(=O)[C@H](CCCN=C(N)N)n3cc(C[C@@H](C)CC)nn3)CC2)n1 | 3.99
CN1CC=C(/C=C/c2ccc(-c3ccccc3)cc2)CC1 | 4.63
CCOc1cccc(/C=N/NC(=O)c2cc(C3CC3)[nH]n2)c1O | 3.89
NC(N)=Nc1nc(-c2ccccc2)c2cc(Cl)ccc2n1 | 4.04
O=C(CSC1=NC(=O)C(c2ccccc2)C(=O)N1)Nc1cccc(Cl)c1 (stereo not given) | 4.10
Cc1cc(NC(=O)c2ccc3[nH]c(C)c(C)c3c2)ccn1 | 4.18

Compound | pIC50
O=C(NC(CO)Cc1ccc([N+](=O)[O-])cc1)C(Cl)Cl (stereo not given) | 5.42
Cc1cccc(NC2=NC3(CCCCC3)N=C(N)N2)c1 | 4.12
Cc1ccc2nc(NCc3ccccc3)[nH]c2c1 | 4.45
CC(Nc1nc(N2CCCC2)nc2ccccc12)c1ccccc1 (stereo not given) | 4.12
O=C(N/N=C/c1ccccc1O)c1ccncc1 | 4.69
CCOC(=O)N/N=C(/C)c1ccc([N+](=O)[O-])o1 | 4.13
CN(C)CCOCCOc1ccc(Cl)c2ccccc12 | 4.39
OC1(c2ccc(Cl)cc2)CCN(Cc2c[nH]c3ccccc23)CC1 | 4.53
CN(C)CCCN(C(=O)CCc1ccccc1)c1nc2ccc(Br)cc2s1 | 4.48
CCCCCc1ccc(OCCCC[n+]2ccccc2)c(CCCCC)c1 | 4.44
O=C(OCC(=O)N1CCOCC1)c1ccc[nH]c1=O | 4.96
Cc1ccc(N/C(=C\C(=O)c2ccccc2)C(=O)O)cc1 | 4.13
O=C(Nc1ccc(-c2nc3ccccc3[nH]2)cc1)c1ccco1 | 4.03
C#CCOCCOCCOCCNc1nc(N2CCN(C(=O)[C@H](CCCCN)n3cc([C@@H](N)CO)nn3)CC2)nc(N2CCN(C(=O)[C@H](Cc3cc4ccccc4[nH]3)n3cc([C@@H](N)Cc4ccc(O)cc4)nn3)CC2)n1 | 4.03
CCc1ccc(NC(=O)C[n+]2cc(-c3ccc(C)cc3)n3c2CCC3)cc1 | 4.43
Fc1ccc(Nc2c3c(nc4ccccc24)CCC3)cc1 | 4.33
CC(C)(c1ccccc1)c1ccc(OCCCNCCO)cc1 | 4.54
CC(C)(C)c1ccc(NC(=O)COC(=O)c2ccc([N+](=O)[O-])s2)cc1 | 4.82
O=C1c2c(O)ccc(O)c2C(=O)c2c(NCCNCCO)ccc(NCCNCCO)c21 | 4.06
COc1c(N2CCN[C@H](C)C2)c(F)cc2c(=O)c(C(=O)O)cn(C3CC3)c12 | 5.30
O=C(/C=C(\O)c1ccccc1)C(=O)NNC(=O)c1ccccc1 | 4.35
CCN1CCCC1Cn1cnc2c([nH]c3ccc(Cl)cc32)c1=O (stereo not given) | 3.93

Compound | pIC50
Cc1ccc(-c2csc(N=C(N)N)n2)c(C)c1 | 4.33
O=C(N/N=C/c1ccccn1)c1cccs1 | 4.18
O=C(Nc1ccccc1)c1c(O)[nH]c(=S)[nH]c1=O | 4.07
CN(C)CCCN1c2ccccc2Sc2ccccc21 | 4.40
CN(Cc1ccccc1O)CC1CCCN(CCc2ccc(Cl)cc2)C1 (stereo not given) | 4.77
Cc1occc1C(=O)N/N=C/c1cccs1 | 4.26
CCN1CCN(C(=O)Nc2ccc(Cc3ccc(NC(=O)N4CCN(CC)CC4)cc3)cc2)CC1 | 4.01
O=C(O)c1csc(-c2ccc(Cl)cc2)n1 | 3.92
c1cc2c(cc1C1CCCCC1)c1c3n2CCN=C3CCC1 | 4.42
CN(Cc1ccccc1)CC(O)COc1ccc(CNCc2ccc(Cl)s2)cc1 (stereo not given) | 4.52
Cc1ccc(C)c(Nc2cc(C)nc3ccccc23)c1 | 4.26
O=C(CSc1nnc(-c2ccccc2)n1-c1ccc(Cl)cc1)NC1CCS(=O)(=O)C1 (stereo not given) | 4.35
CCCCCCCC(=O)N/N=C/c1ccc([N+](=O)[O-])o1 | 4.40
O=[N+]([O-])c1ccc(O)c2ncccc12 | 6.10
O=C(Cn1nc(C(F)F)cc1C(F)F)NNC(=S)Nc1ccc([N+](=O)[O-])cc1 | 4.16
Cc1cc(N2CCC(C)CC2)nc(NCc2ccccc2)n1 | 4.29
Cc1ccc(C[n+]2c(-c3ccc(C)cc3)cc(-c3ccc(C)cc3)cc2-c2ccc(C)cc2)cc1 | 4.81
COc1cccc(/C=N/NC(=O)c2ccoc2C)c1O | 3.86
CNCc1c(OCc2ccccc2F)ccc2ccccc12 | 4.43
O=[N+]([O-])c1cc(O)c2ncccc2c1 | 4.80
c1ccc(CN2CCC(N3CCN(Cc4ccc5c(c4)OCO5)CC3)CC2)cc1 | 3.82
CC(C)(C)CC(C)(C)c1ccc(OCCOCC[N+](C)(C)Cc2ccccc2)cc1 | 4.67

— PubChem BioAssay AID2384 (Southern Research Specialized Biocontainment Screening …, 2010)
